Experimental data as given in publication PMC2574845 (Drug metabolism and disposition: the biological fate of …, 2008).

What was measured:
[1] = Quinone/hydroquinone cycling in microsomal incubations; details: microsomal incubation with NAD(P)H; data not shown
[2] = in water; ref Lang et al., 2007; cited from earlier work
[3] = BA-glutathione conjugate formation; details: 50 μM BA; for fraction of BA conjugated with glutathione / relative rate of glutathione conjugate formation, rank order: 5 mM glutathione, pH 7.4, room temperature; for fraction of BA conjugated with glutathione: data not shown
Metabolism [4] = details: mouse liver microsomes, 50 μM BA, pH 7.4, 35 °C; for oxygen consumption rates, NADPH-dependent metabolism, comparison: p<0.05; for relative oxygen consumption rates, NADH-dependent metabolism, rank order: > indicates p<0.05
[5] = target: recombinant human NQO1 (rhNQO1) (Homo sapiens, UniProt P15559); assay: Relative stability of hydroquinone ansamycins; assay type: physicochemical; details: for relative stability of BAH2 (nmol oxygen consumption per nmol NADH oxidized), rank order: 50 mM potassium phosphate buffer, pH 7.4, 35 °C, BAH2 generated by rhNQO1 and NADH, > indicates p<0.05
Sequence of recombinant human NQO1 (rhNQO1) (P15559 whole entry): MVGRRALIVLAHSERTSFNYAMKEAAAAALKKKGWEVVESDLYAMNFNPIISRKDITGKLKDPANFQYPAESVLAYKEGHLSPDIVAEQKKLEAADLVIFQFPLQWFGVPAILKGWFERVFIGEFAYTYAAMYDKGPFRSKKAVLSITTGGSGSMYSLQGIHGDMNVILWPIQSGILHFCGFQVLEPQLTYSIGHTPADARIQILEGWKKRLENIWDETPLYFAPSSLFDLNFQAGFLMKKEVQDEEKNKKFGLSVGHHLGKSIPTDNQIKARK

Metabolism [6] = details: human liver microsomes, 50 μM BA, pH 7.4, 35 °C, > indicates p<0.05
rhNQO1 = rhNQO1 (Homo sapiens, UniProt P15559); assay: Prevention of GM and 17DMAG glutathione conjugate formation by rhNQO1; assay type: biochemical; details: for prevention of conjugation with glutathione by NQO1 reduction: 50 μM BA, 5 mM GSH, 11.8 μg rhNQO1, 500 μM NADH, pH 7.4, room temperature
Sequence of rhNQO1 (P15559 whole entry): as above

[7] = 5 min, 50 μM, pH 7.4
[8] = target: T1, human NADPH-cytochrome P450 reductase (Homo sapiens, UniProt P16435); details: GM, NADH and NADPH-cytochrome P450 reductase, no NADPH
T1 sequence (P16435 1-677): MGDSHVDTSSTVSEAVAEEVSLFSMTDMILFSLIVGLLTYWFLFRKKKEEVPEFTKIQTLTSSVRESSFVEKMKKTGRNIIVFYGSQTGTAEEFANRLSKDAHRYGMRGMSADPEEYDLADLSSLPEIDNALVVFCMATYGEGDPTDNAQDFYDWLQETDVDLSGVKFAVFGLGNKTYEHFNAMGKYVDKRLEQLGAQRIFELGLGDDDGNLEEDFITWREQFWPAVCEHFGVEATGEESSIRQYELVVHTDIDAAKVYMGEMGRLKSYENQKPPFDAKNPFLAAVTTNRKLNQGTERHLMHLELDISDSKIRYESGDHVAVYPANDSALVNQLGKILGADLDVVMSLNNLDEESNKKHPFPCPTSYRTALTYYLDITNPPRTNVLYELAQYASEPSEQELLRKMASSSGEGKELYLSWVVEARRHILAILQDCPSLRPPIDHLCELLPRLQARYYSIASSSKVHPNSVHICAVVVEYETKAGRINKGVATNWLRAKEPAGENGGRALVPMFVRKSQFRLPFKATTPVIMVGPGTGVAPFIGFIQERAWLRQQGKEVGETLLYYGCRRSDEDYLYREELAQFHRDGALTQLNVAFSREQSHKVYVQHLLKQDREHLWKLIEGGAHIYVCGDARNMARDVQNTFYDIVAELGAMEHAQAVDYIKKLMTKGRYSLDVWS

Row | Structure (SMILES) | compound in the quinone form on HPLC [1] | oxygen consumption rates, NADPH-dependent metabolism, comparison (Metabolism [4]) | relative stability of BAH2 (nmol oxygen consumption per nmol NADH oxidized), rank order [5] | relative oxygen consumption rates, NADH-dependent metabolism, rank order (Metabolism [6]) | relative oxygen consumption rates, NADPH-dependent metabolism, rank order (Metabolism [6]) | relative rate of glutathione conjugate formation, rank order [3] | relative oxygen consumption rates, NADH-dependent metabolism, rank order (Metabolism [4]) | also measured
1 | C=CCNC1=C2C[C@@H](C)C[C@H](OC)[C@H](O)[C@@H](C)/C=C(\C)[C@H](OC(N)=O)[C@@H](OC)/C=C\C=C(/C)C(=O)NC(=CC1=O)C2=O [17AAG, 17-(allylamino)-17-demethoxygeldanamycin] | > 95% | significantly slower compared to GM | – | – | – | – | – | one-electron redox potential [2]: −0.390 V; fraction of BA conjugated with glutathione ([3]; after 24 hours): less than 15%
2 | C=CCNc1c(O)cc2c(O)c1C[C@@H](C)C[C@H](OC)[C@H](O)[C@@H](C)/C=C(\C)[C@H](OC(N)=O)[C@@H](OC)/C=C\C=C(/C)C(=O)N2 [17AAGH2, 17-(allylamino)-17-demethoxygeldanamycin hydroquinone] | – | – | GMH2>17AAGH2>17DMAGH2>17AGH2, 17AEP-GAH2 | – | – | – | – | –
3 | CO[C@H]1/C=C\C=C(/C)C(=O)NC2=CC(=O)C(NCCN3CCCC3)=C(C[C@@H](C)C[C@H](OC)[C@H](O)[C@@H](C)/C=C(\C)[C@@H]1OC(N)=O)C2=O [17AEP-GA, 17-demethoxy-17-[[2-(pyrrolidin-1-yl)ethyl]amino]-geldanamycin] | – | significantly greater than 17AAG | – | GM>17DMAG, 17AG, 17AEP-GA>17AAG | GM, 17DMAG, 17AEP-GA>17AG>17AAG | GM>17DMAG>17AEP-GA>17AAG, 17AG | GM>17DMAG>17AG, 17AEP-GA, 17AAG | fraction of BA conjugated with glutathione ([3]; within 10 hours): about 90%
4 | COC1C=CC=C(C)C(=O)Nc2cc(O)c(NCCN3CCCC3)c(c2O)CC(C)CC(OC)C(O)C(C)C=C(C)C1OC(N)=O (stereo not shown) [17AEP-GAH2, 17-demethoxy-17-[[2-(pyrrolidin-1-yl)ethyl]amino]-geldanamycin hydroquinone] | – | – | GMH2>17AAGH2>17DMAGH2>17AGH2, 17AEP-GAH2 | – | – | – | – | half-life of auto-oxidation of BAH2 back to quinone (in words) ([5]; auto-oxidation over time): a few minutes
5 | CO[C@H]1/C=C\C=C(/C)C(=O)NC2=CC(=O)C(N)=C(C[C@@H](C)C[C@H](OC)[C@H](O)[C@@H](C)/C=C(\C)[C@@H]1OC(N)=O)C2=O [17AG, 17-(amino)-17-demethoxygeldanamycin] | > 95% | significantly greater than 17AAG | – | GM>17DMAG, 17AG, 17AEP-GA>17AAG | GM, 17DMAG, 17AEP-GA>17AG>17AAG | GM>17DMAG>17AEP-GA>17AAG, 17AG | GM>17DMAG>17AG, 17AEP-GA, 17AAG | fraction of BA conjugated with glutathione ([3]; after 24 hours): less than 15%
6 | COC1C=CC=C(C)C(=O)Nc2cc(O)c(N)c(c2O)CC(C)CC(OC)C(O)C(C)C=C(C)C1OC(N)=O (stereo not shown) [17AGH2, 17-(amino)-17-demethoxygeldanamycin hydroquinone] | – | – | GMH2>17AAGH2>17DMAGH2>17AGH2, 17AEP-GAH2 | – | – | – | – | –
7 | CO[C@H]1/C=C\C=C(/C)C(=O)NC2=CC(=O)C(NCCN(C)C)=C(C[C@@H](C)C[C@H](OC)[C@H](O)[C@@H](C)/C=C(\C)[C@@H]1OC(N)=O)C2=O [17DMAG, 17-demethoxy-17-[[2-(dimethylamino)ethyl]amino]-geldanamycin] | > 95% | significantly greater than 17AAG | – | GM>17DMAG, 17AG, 17AEP-GA>17AAG | GM, 17DMAG, 17AEP-GA>17AG>17AAG | GM>17DMAG>17AEP-GA>17AAG, 17AG | GM>17DMAG>17AG, 17AEP-GA, 17AAG | glutathione conjugate (17DMAG-SG) formed ([3]; 5 mM reduced glutathione, phosphate buffer pH 7.4, room temperature, within 4 hours): approximately 47 μM; prevention of conjugation with glutathione by NQO1 reduction (rhNQO1): > 95%
8 | CO[C@H]1/C=C\C=C(/C)C(=O)Nc2cc(O)c(NCCN(C)C)c(c2O)C[C@@H](C)C[C@H](OC)[C@H](O)[C@@H](C)/C=C(\C)[C@@H]1OC(N)=O [17DMAGH2, 17-demthoxy-17-[[2-(dimethylamino)ethyl]amino]-geldanamycin hydroquinone] | – | – | GMH2>17AAGH2>17DMAGH2>17AGH2, 17AEP-GAH2 | – | – | – | – | –
9 | COC1=CC(=O)c2c(c(COc3ccc([N+](=O)[O-])cc3)c(C)n2C)C1=O [ES936, 5-methoxy-1,2-dimethyl-3-[(4-nitrophenoxy)methyl]indole-4,7-dione] | – | – | – | – | – | – | – | effect on NQO1-mediated prevention of BA glutathione conjugation (rhNQO1; pretreatment with 2 μM ES936, GM or 17DMAG with NADH, rhNQO1 and glutathione): abrogated
10 | COC1=C2C[C@@H](C)C[C@H](OC)[C@H](O)[C@@H](C)/C=C(\C)[C@H](OC(N)=O)[C@@H](OC)/C=C\C=C(/C)C(=O)NC(=CC1=O)C2=O [GM, geldanamycin] | about 70% | significantly greater than 17AAG | – | GM>17DMAG, 17AG, 17AEP-GA>17AAG | GM, 17DMAG, 17AEP-GA>17AG>17AAG | GM>17DMAG>17AEP-GA>17AAG, 17AG | GM>17DMAG>17AG, 17AEP-GA, 17AAG | glutathione conjugate (GMH2-SG) formed [7]: approximately 45 μM; one-electron redox potential [2]: −0.243 V; oxygen consumption with NADH as cofactor [8]: no oxygen consumption was observed; prevention of conjugation with glutathione by NQO1 reduction (rhNQO1): > 95%
11 | COc1c(O)cc2c(O)c1C[C@@H](C)C[C@H](OC)[C@H](O)[C@@H](C)/C=C(\C)[C@H](OC(N)=O)[C@@H](OC)/C=C\C=C(/C)C(=O)N2 [GMH2, geldanamycin hydroquinone] | – | – | GMH2>17AAGH2>17DMAGH2>17AGH2, 17AEP-GAH2 | – | – | – | – | half-life of auto-oxidation of BAH2 back to quinone ([5]; auto-oxidation over time): about 20 hours
